According to patent publication US4593097A, “Phenazine carboxylic acid derivatives and a process for production thereof” (Kyowa Hakko Kogyo Co., Ltd., priority 1983, dated 1986):
Values after ≈ are worked out from the molar mass of the structure shown.

How the values were obtained:
[1] = tested on: Shigella sonnei ATCC 9290; test: Antibacterial activity by agar dilution method (pH 7.0), Shigella sonnei ATCC 9290; format: cell-based; details: ATCC9290, read-out: Minimum Inhibitory Concentration
Description: (§1) Antibacterial activities of DC-86-Y, -M, -R and -C against various bacteria determined by agar dilution method (pH 7.0) are shown in Table 2.

[2] = tested on: Klebsiella pneumoniae ATCC 10031; test: Antibacterial activity by agar dilution method (pH 7.0), Klebsiella pneumoniae ATCC 10031; format: cell-based; details: ATCC10031, read-out: Minimum Inhibitory Concentration
Description: as §1

Escherichia coli ATCC 26 = test: Antibacterial activity by agar dilution method (pH 7.0), Escherichia coli ATCC 26; format: cell-based; details: ATCC26, read-out: Minimum Inhibitory Concentration
Description: as §1

in vivo = details: mouse, ip
[3] = tested on: Bacillus subtilis No. 10707; test: Antibacterial activity by agar dilution method (pH 7.0), Bacillus subtilis No. 10707; format: cell-based; details: read-out: Minimum Inhibitory Concentration
Description: as §1

[4] = tested on: Salmonella typhosa ATCC 9992; test: Antibacterial activity by agar dilution method (pH 7.0), Salmonella typhosa ATCC 9992; format: cell-based; details: Salmonella enterica, pH 7, read-out: Minimum Inhibitory Concentration
Description: as §1

[5] = tested on: Sarcoma 180 ascites tumor cells; test: Anti-tumor activity against Sarcoma 180 in mice; format: in vivo, ddy male mice; details: 24 h after transplantation, measured 7 days after transplantation
Description: 5×10^6 Sarcoma 180 ascites tumor cells were transplanted to the hypoderm of the armpit cavity of ddy male mice weighing about 20 g, one group being 6 mice. 24 hours after the transplantation, 0.2 ml of a phosphate buffer saline (PBS) solution of a test compound having various concentrations was intraperitoneally administered once. The composition of PBS is 0.8 g/dl NaCl, 0.02 g/dl KCl, […] Na2 HPO4 and 0.02 g/dl KH2 PO4 (pH 7.2). For comparison, 0.2 ml of PBS containing mitomycin C was intraperitoneally administered 24 hours after the transplantation of the tumor cells. Average tumor volume (mm^3) and T/C (T: average tumor volume of mice treated with the test compound, C: average tumor volume of mice treated with 0.2 ml of PBS intraperitoneally)were measured 7 days after the transplantation and the results shown in Table 3 were obtained.

[6] = tested on: Staphylococcus aureus ATCC 6538P; test: Antibacterial activity by agar dilution method (pH 7.0), Staphylococcus aureus ATCC 6538P; format: cell-based; details: ATCC6538P, read-out: Minimum Inhibitory Concentration
Description: as §1

SMILES	MIC [1] [µg/mL]	MIC [2] [µg/mL]	MIC (Escherichia coli ATCC 26) [µg/mL]	LD50 (in vivo) [mg/kg]	MIC [3] [µg/mL]	MIC [4] [µg/mL]	T/C (average tumor volume, treated/control) ([5]; 12.5 mg/kg i.p. once)	T/C (average tumor volume, treated/control) ([5]; 25 mg/kg i.p. once)	T/C (average tumor volume, treated/control) ([5]; 50 mg/kg i.p. once)	MIC [6] [µg/mL]	T/C (average tumor volume, treated/control) ([5]; 5 mg/kg i.p. once)	T/C (average tumor volume, treated/control) ([5]; 10 mg/kg i.p. once)	T/C (average tumor volume, treated/control) ([5]; 20 mg/kg i.p. once)	T/C (average tumor volume, treated/control) ([5]; 100 mg/kg i.p. once)	T/C (average tumor volume, treated/control) ([5]; 200 mg/kg i.p. once)	T/C (average tumor volume, treated/control) ([5]; 6 mg/kg i.p.)
CC(OC(=O)CCl)c1cccc2nc3c(C(=O)O)cccc3nc12 (centres unmarked) [DC-86-C]	10 (≈ 29 µM)	> 100	> 100	40	0.01 (≈ 0.029 µM)	10 (≈ 29 µM)	0.98	0.72	dead	0.2 (≈ 0.58 µM)						
CC(OC(=O)CO)c1cccc2nc3c(C(=O)O)cccc3nc12 (centres unmarked) [DC-86-M]	10 (≈ 30.6 µM)	100 (≈ 306 µM)	100 (≈ 306 µM)	20	0.1 (≈ 0.306 µM)	10 (≈ 30.6 µM)				0.3 (≈ 0.919 µM)	0.97	0.82	0.36			
CC(OC(=O)COC(C)(C)C)c1cccc2nc3c(C(=O)O)cccc3nc12 (centres unmarked) [DC-86-R]	> 100	> 100	> 100	250	0.7 (≈ 1.83 µM)	> 100			1.06	3 (≈ 7.84 µM)				0.87	0.86	
CC(O)c1cccc2nc3c(C(=O)O)cccc3nc12 (centres unmarked) [DC-86-Y, metal not drawn]	> 100	> 100	> 100	300	> 100	> 100				> 100						
CO[C@@]12[C@H](COC(N)=O)C3=C(C(=O)C(C)=C(N)C3=O)N1C[C@@H]1N[C@@H]12 [Mitomycin C, mitomycin C, reference compound]																0.28
